From patent US10988444B2, “Antimicrobial compounds” (NEWSOUTH INNOVATIONS PTY LIMITED, priority 2016, dated 2021)
Like-named read-outs stand apart in the source and are kept apart here.

How the values were obtained:
E. coli [1] = test: Minimal inhibitory concentration (MIC) determination, Example 1; format: cell-based; settings: Escherichia coli, 24 h, MHB, 37° C., read-out: Minimum inhibitory concentration (MIC) E. coli
Description: (§1) The antibacterial activity of the compounds was determined by the determination of minimal inhibitory concentration (MIC) by following the previously published protocol (see Nizalapur, S.; Ho, K. K.; Kimyon, Ö.; Yee, E.; Berry, T.; Manefield, M.; Cranfield, C. G.; Willcox, M.; Black, D. S.; Kumar, N. Org. Biomol. Chem. 2016, 14, 3623). The compounds to be tested were dissolved and diluted in autoclaved Millipore water. A single colony of bacteria was cultured overnight in TSB at 37° C. The resulting bacteria were collected by centrifugation and re-suspended in the same volume of MHB twice. Optical density (OD) of the resulting culture was adjusted to 0.1 at 600 nm (10^8 CFU/mL) in MHB, and the adjusted culture was further diluted to […] in MHB. Then, 100 μL of the bacterial solution was added to wells of a 96-well plate containing 100 μL of serially diluted compound. Two controls were also prepared: one containing 100 μL of MHB media and 100 μL sterile water, and the other containing 100 μL of bacterial solution and 100 μL sterile water. […] The MIC value was determined as the lowest concentration of compound that inhibited the complete growth of the bacteria (i.e. OD similar to that of the control having no bacteria). Each experiment was performed in triplicate and was repeated in three independent experiments.
(§2) The results of the MIC assay are given below in Table 1.

S. aureus [2] = test: as above; format: cell-based; settings: Staphylococcus aureus
Description: as §1, §2

S. marcescens = test: Biofilm disruption assay, established biofilms, crystal violet staining; format: cell-based, Serratia marcescens; settings: 250 μM, 24 h treatment
Description: (§3) Bacterial cultures were grown in TSB media for overnight at 37° C. with shaking at 150 r.p.m. Cultures were diluted (1:20) in YPD medium and 200 μl aliquots were dispensed to flat bottom 96-well plate wells (Sarstedt Australia). Cultures were supplemented with varying concentrations of synthetic compounds dissolved in water. For pre-established biofilm assay, cultures were grown in 96-well plate wells overnight prior to supplementation with synthetic compounds. Control cultures were supplemented with an equal amount of DMSO. Plates were sealed with self-adhesive microplate sealers (TopSeal-A, PerkinElmer) to allow air diffusion and to prevent condensation. Cultures were incubated overnight at 37° C. with shaking at 150 r.p.m. Biofilms adhered on polystyrene substratum were quantified by crystal violet staining as described previously (see Wiegand, I.; Hilpert, K.; Hancock, R. E. W. Nat. Protocols 2008, 3 (2), 163-175). All cultures were prepared in triplicates. Error bars represent the standard error of three independent experiments (n=3).
(§4) The biofilm disruption activities of the compounds were investigated using crystal violet staining according to a previously published protocol (G. A. O'Toole, J Vis Exp, 2011, (47), pii: 2437, DOI: 10.3791/2437, 2437). The ability of compounds (34-38, 51-56, 61, 62, 65 and 66) to disrupt the established biofilms of the Gram-positive bacteria S. aureus and the Gram-negative bacteria Pseudomonas aeruginosa, Serratia marcescens and E. coli, was determined at a concentration of 250 μM. In this assay, bacterial cultures were grown on a polystyrene substratum overnight prior to treatment with the compounds. In addition, the ability of these compounds to inhibit the formation of biofilms of P. aeruginosa and S. marcescens was also investigated at 250 μM, whereby the bacterial cultures were grown in the presence of test compounds.

E. coli [3] = test: as above; format: cell-based; settings: 250 μM, 24 h treatment
Description: as §3, §4

[4] = test system: Pseudomonas aeruginosa (PAO1); test: as above; format: cell-based; settings: 250 μM, 24 h treatment
Description: as §3, §4

S. aureus [5] = test: as above; format: cell-based; settings: 250 μM, 24 h treatment
Description: as §3, §4

S. aureus biofilms = test: Confocal microscopy of established biofilms, Live/dead stain; format: cell-based; settings: 250 μM
[6] = test system: Pseudomonas aeruginosa (PAO1); test: Biofilm inhibition assay (inhibition of biofilm formation), crystal violet staining; format: cell-based; settings: 24 h, read-out: inhibition of biofilm formation by P. aeruginosa
Description: as §3, with “no-established” for “pre-established”, “along” for “prior to supplementation”, “water.” for “DMSO.”
as §4

[7] = test system: MRC-5 normal human lung fibroblasts; test: Toxicity assay, Alamar blue, Example 1; format: cell-based; settings: 72 h incubation
Description: The normal human lung fibroblasts MRC-5 were cultured in minimal essential medium (MEM, Invitrogen) supplemented with 10% foetal calf serum (FCS), 1% L-glutamine-penicillin-streptomycin, 2% sodium bicarbonate, 1% non-essential amino acids (NEAA) and 1% sodium pyruvate. The cell line was maintained at 37° C. in 5% CO2 as an adherent monolayer and was passaged upon reaching confluence by standard cell culture techniques. MRC-5 cells were seeded at 2×10^4 cells per well in 96-well plates to ensure full confluence (quiescence). Cells were treated 24 h after seeding with 0.1 to 1000 μM of compounds. After 72 h drug incubation, the treated media was replaced with fresh media containing 10% Alamar blue and the cells were incubated for another 6 h. The metabolic activity was detected by spectrophotometric analysis by assessing the absorbance of Alamar blue as previously described by Pasquier et. al (see Pasquier, E.; Ciccolini, J.; Carre, M.; Giacometti, S.; Fanciullino, R.; Pouchy, C.; Montero, M.-P.; Serdjebi, C.; Kavallaris, M.; André, N. Oncotarget 2011, 2, 797).
Cell proliferation was determined and expressed as a percentage of untreated control cells. The determination of IC50 values was performed using GraphPad Prism 6 (San Diego, Calif., USA).
To further evaluate the utility of these novel guanylated peptidomimetics for medical applications, it was essential to determine their specificity towards bacterial cells over mammalian cells.

S. marcescens biofilms = test: Confocal microscopy of non-established biofilms, Live/dead stain; format: cell-based, Serratia marcescens; settings: 250 μM
Description: S. aureus and Serratia marcescens biofilms were grown by adding 1.5 ml of bacterial cells (OD600 nm˜0.600) suspended in fresh TSB medium into 35×10 mm polystyrene petri dishes and incubated over 24 h at 37° C. in a shaking incubator at 120 r.p.m. Cultures were supplemented with varying concentrations of synthetic compounds dissolved in water. Control cultures were supplemented with an equal amount of water. After 24 h, the biofilm growth medium was discarded and the biofilms were gently rinsed 3 times with PBS (pH: 7.0) in order to remove any planktonic bacterial cells. The remaining substratum adhered biofilms were then stained with Live/dead stain (Invitrogen, Oregon, USA) for 20 mins in the dark and then subjected to confocal microscopy. Stained biofilms were visualized with FV 1200 Confocal microscope.

S. aureus (SA38) = settings: Literature value; cited from earlier work
[8] = MHB, 37° C., 24 h, read-out: Minimum inhibitory concentration (MIC) S. aureus

| Compound | MIC (E. coli [1]) [mg/L] | MIC (S. aureus [2]; [8]) [mg/L] | disruption of established biofilms of S. marcescens (S. marcescens) [%] | disruption of established biofilms of E. coli (E. coli [3]) [%] | disruption of established biofilms of P. aeruginosa [4] [%] | disruption of established biofilms of S. aureus (S. aureus [5]) [%] | confocal microscopy, effect on pre-established S. aureus biofilm (S. aureus biofilms) | MIC (S. aureus [2]; MIC in μM as compared with MRC-5 IC50, read-out: equivalent MIC values) [µM] | inhibition at 250 µM [6] [%] | toxicity (IC50) against MRC-5 human fibroblast cells [7] | confocal microscopy, effect on S. marcescens biofilm formation (S. marcescens biofilms) | MIC (S. aureus (SA38)) [µM] |
| --- | --- | --- | --- | --- | --- | --- | --- | --- | --- | --- | --- | --- |
| COC(=O)C(CCCN)NC(=O)C(CCCCN)NC(=O)C(=O)c1cc(Br)ccc1NC(=O)c1ccc2ccccc2c1.Cl.Cl (stereo not drawn) [Compound 62, Methyl 2-(2-(2-(2-(2-naphthamido)-5-bromophenyl)-2-oxoacetamido)-6-aminohexanamido)-5-aminopentanoate dihydrochloride] | 21 | 23 | 49 | 42 | 46 | 61 | disrupted the pre-established biofilm significantly |  |  |  |  |  |
| COC(=O)[C@H](CCCNC(=N)N)NC(=O)[C@H](CCCNC(=N)N)NC(=O)C(=O)c1ccccc1NC(=O)c1ccc2ccccc2c1.Cl.Cl [Compound 65, Methyl (2-(2-(2-naphthamido)phenyl)-2-oxoacetyl)arginylargininate dihydrochloride] | 90 | 18 | 60 |  |  |  |  | 31 | 65 | not reaching a 50% reduction of cell viability at the highest tested dose | inhibited biofilm formation |  |
| MSI-78 |  |  |  |  |  |  |  |  |  |  |  | 13 |
